Results taken from US4575509A, “Water-soluble formulations of m-AMSA with pyroglutamic acid” (Bristol-Myers Company, priority 1984, dated 1986).
Counter-ions that a name gives are not always drawn. Like-named read-outs stand apart in the source and are kept apart here.

Key:
[1] = literature references / prior art, cited from earlier work
[2] = Solubility test in sterile water for injection (saturated filtrate, HPLC, m-AMSA base content); format: physicochemical; details: 0.22μ filtrate, HPLC assay within one hour after reconstitution
Procedure: To determine the relative solubilities of the pyroglutamate salts and compositions of the present invention and the prior art m-AMSA methanesulfonate salt, the following solubility test was carried out.
The following formulations were tested: […]
The formulations were prepared as follows: […]
(1) The m-AMSA methanesulfonate salt was prepared by slurrying 1 g of m-AMSA base in 125 ml of acetone for 20 minutes. The resulting near solution was vacuum filtered to remove undissolved solids. The solids remaining in the filter were washed with 10 ml of acetone and the wash solution was added to the original filtrate. To the above solution of m-AMSA base there was added with rapid stirring 0.24 ml of methanesulfonic acid over a three minute interval. Crystals formed and the mixture was stirred five additional minutes. The crystals were then vacuum filtered, washed with two 20 ml portions of acetone and vacuum dried at 50° C. for 24 hours to give 1.18 g of m-AMSA methanesulfonate (1:1) salt.
(2) The composition containing m-AMSA base and methanesulfonic acid (1:2 ratio) was prepared by adding 1 equivalent of methanesulfonic acid to the 1:1 m-AMSA methanesulfonate salt prepared above.
(3) The 1:1 m-AMSA pyroglutamate salt was prepared as described in Example 1.
(4) The 1:2 m-AMSA pyroglutamate salt was prepared as described in Example 2.
To carry out the solubility test, accurately weighed amounts of the above-described formulations were added into accurately measure amounts of sterile water for injection and the mixture was shaken by Vortex® mixer for 5 minutes to yield a complete solution. The procedure was continued until no more material dissolved in the solution. The saturated solutions were then passed through a 0.22μ Millipore® filter. The resultant clear filtrates were sampled and assayed via HPLC assay within one hour after reconstitution. Solubility was measured as the m-AMSA base content in the filtrate.

[3] = physchem; format: physicochemical; details: water, found by the present inventors, read-out: aqueous solubility
[4] = physchem; format: physicochemical; details: water
Procedure: DL-Pyroglutamic acid (130 mg) was dispersed in 20 ml of acetone to form a solution. To this solution there was added 400 mg of m-AMSA free base. The mixture was stirred and 10 ml of methyl alcohol added drop by drop. Upon agitation, a yellow solid gradually precipitated. The precipitate was collected, washed twice with acetone and dried in vacuo to give the title salt having a melting point of 156°-158° C. and an aqueous solubility at room temperature of about 10 mg/ml.
m-AMSA base (400 mg) was suspended in 30 ml of dried acetone. With gentle stirring, a solution was obtained by gradually adding a solution of 260 mg of DL-pyroglutamic acid in 15 ml of methanol to the above suspension. Two 10 ml portions of dried methanol were added to the solution to precipitate the dipyroglutamate salt. The salt was isolated by filtration, washed with methanol and dried in a vacuum dessicator. The yield of dipyroglutamate salt was about 600 mg; mp 145°-148° C.

[5] = system: animal tumor systems; details: Cain et al. 1974; cited from earlier work
[6] = initial results; cited from earlier work
[7] = penicillin G, ampicillin, cephalothin etc.; U.S. Pat. No. 3,920,814; cited from earlier work

## COc1cc(NS(C)(=O)=O)ccc1Nc1c2ccccc2nc2ccccc12 [m-AMSA methanesulfonate salt (1:1), m-AMSA methanesulfonate salt]
[1]; listed as monomethanesulfonate salt of m-AMSA, methanesulfonate salt
  solubility in water (words): sufficiently soluble for experimental small animal (mice) antitumor studies
[1]; listed as monomethanesulfonate, methanesulfonate salt
  solubility in water (words): insufficiently water-soluble for practical dosage forms
[1]; methanesulfonate salt
  solubility in water (words): only slightly soluble in water
[2]; methanesulfonate salt
  Solubility (mg/ml m-AMSA base): 0.090 mg/ml m-AMSA base
[3]
  solubility: ~90 µg/mL

## COc1cc(NS(C)(=O)=O)ccc1Nc1c2ccccc2nc2ccccc12 [Example 2, m-AMSA Di DL-Pyroglutamate Salt]
[2]; listed as m-AMSA pyroglutamate salt (1:2)
  Solubility (mg/ml m-AMSA base): 13.1 mg/ml m-AMSA base
[4]; m-AMSA base content by HPLC, read-out: aqueous solubility (m-AMSA base content as determined by HPLC)
  solubility: 13100 µg/mL

## COc1cc(NS(C)(=O)=O)ccc1Nc1c2ccccc2nc2ccccc12 [Example 1, m-AMSA Mono DL-Pyroglutamate Salt]
[2]; listed as m-AMSA pyroglutamate salt (1:1)
  Solubility (mg/ml m-AMSA base): 12.5 mg/ml m-AMSA base
[4]; room temperature, read-out: aqueous solubility
  solubility: ~10000 µg/mL

## COc1cc(NS(C)(=O)=O)ccc1Nc1c2ccccc2nc2ccccc12 [m-AMSA]
[5]
  antitumor activity: significant antitumor activity
[1]
  solubility in water (words): very limited solubility in water
[6]
  clinical evaluation: very promising initial results

## COc1cc(NS(C)(=O)=O)ccc1Nc1c2ccccc2nc2ccccc12 [monohydrochloride]
[1]
  solubility in water (words): insufficiently water-soluble for practical dosage forms
[1]; listed as hydrochloride
  solubility in water (words): only slightly soluble in water

## O=C1CCC(C(=O)O)N1 (stereo not drawn) [pyroglutamic acid, 2-pyrrolidone-5-carboxylic acid]
[7]
  effect on antibiotics: potentiate the intrinsic activity and blood levels of certain antibiotics
